{"source": "patent US6235891A", "about": "“Glucocorticoid receptor agonist and decreased PP5” (South Alabama Medical Science Foundation, priority 1999, dated 2001)", "key": {"PP5 mRNA": {"system": "PP5 mRNA", "test": "Northern blot analysis of PP5 mRNA expression in A549 cells", "format": "cell-based, human", "conditions": "doses of 25 to 500 nM, read-out: IC50 for reduction of PP5 mRNA levels", "source_text": "The oligonucleotides shown in Table 1 were designed using the Genbank sequences HSSERTHRP (Genbank accession number X92121), HSRNAPPP5 (Genbank accession number X89416) and PPP5C (Genbank accession number U25174), synthesized and tested for inhibition of PP5 mRNA expression in A549 cells using a Northern blot assay. All oligonucleotides shown in Table 1 are chimeric oligonucleotides with central 2'-deoxy \"gaps,\" which have phosphorothioate backbones, flanked on both sides by 2'-methoxyethoxy (2'-MOE) \"wings\" (shown in bold), which have phosphodiester backbones. All cytosines in the 2'-MOE wings are 5-methylcytosines.\nIn the initial screen, A549 cells were treated with oligonucleotides at a concentration of 300 nM oligonucleotide for four hours in the presence of […] lipofectin. Results were normalized and expressed as a percent of control. The effect of each oligonucleotide on levels of PP5 mRNA, expressed as approximate percent inhibition compared to control, is shown in Table 1. In this initial screen, oligonucleotides giving a reduction of PP5 mRNA of approximately 50% or greater were considered active. […] These sequences (SEQ ID NO: 1, 2, 3, 4, 6, 7 and 12, respectively, SEQ ID Nos shown in bold in Table 1) are therefore preferred.\nThese oligonucleotides were tested for their ability to reduce PP5 mRNA levels in A549 cells, using oligonucleotide doses of 25 to 500 nM.\nThe human lung tumor cell line A549 was obtained from the American Type Culture Collection (Rockville Md.) and were grown in DMEM (Gibco BRL, Gaithersburg Md.), supplemented with 10% fetal calf. Cells were seeded on 60 mm plates. When they reached 70% confluency, they were washed with DMEM and 1 ml of DMEM containing 15 μg/ml DOTMA/DOPE (Lipofectin®, GIBCO-BRL) and oligonucleotide at desired concentration was added. Duplicate dishes were used for each treatment condition. After 4 hours of treatment at 37°, cells were washed and cultured in fresh DMEM containing 10% fetal bovine serum for an additional 17 hours. Cells were then harvested and total RNA was extracted with TRIzol Reagent (GIBCO-BRL) according to manufacturer's protocol. Total RNA (20 μg) was fractionated on a 1% agarose gel containing formaldehyde, and transferred to a DURLON-UV (Stratagene) nylon membrane. Following UV crosslinking, the filters were hybridized with the appropriate protein phosphatase probe. The ^32 P-labeled human PP cDNA probes are generated with DECAPrime® DNA Labeling Kit (Ambion) according to the manufacturer's protocol. Hybridization was performed in a hybridization solution containing 50% formamide at 42° for 16 hours. This was followed by two low stringency washes (2×SSC) at room temperature and two high stringency washes (0.1×SSC/0.5% SDS) at 55° C. Hybridization signals were visualized by autoradiography, and filters were then stripped and reprobed with a ^32 P-labeled glyceraldehyde-3-phosphate dehydrogenase (GAPDH) probe to confirm equal loading. The densities of hybridization signals were measured with the NIH Image program (ImagePC).\nThe cells were harvested, and total RNA was extracted with TRIzol® Reagent according to the methods of the manufacturer. Total RNA (20 μg) was fractionated on 1% agarose gels containing formaldehyde and transferred to DURLON-UV nylon membranes (Stratagene). Following UV cross-linking, the filters were hybridized with a [α^32 P]probe for human PP5. The human PP5 cDNA probe was generated from the full length coding region of PP5 and [α^32 P]-dATP was labeled with DECAprime® DNA Labeling Kit according to the manufacturer's protocol. Hybridization was performed in the presence of 50% formamide, 0.1 M Pipes, 0.8 M NaCl, 5×Denhardt's solution, 100 μg/ml denatured herring sperm DNA, 1×10^6 cpm/ml [α-^32 P]-labeled probe and 10% dextran sulfate at 42° C. for 16 hours. Following hybridization, the membrane was subjected to two low stringency washes (2×SSC) at room temperature and then two high stringency washes (0.1×SSC/0.5% SDS) at 55° C. […]"}, "A549 cells": {"system": "A549 cells", "test": "[3H]-thymidine incorporation (DNA synthesis) in A549 cells", "format": "cell-based, human", "conditions": "300 nM", "procedure": "Cells were pulse-labeled with [^3 H]-thymidine for 5 hours at intervals over the next five days. Cells were lysed and [^3 H]-thymidine incorporation (indicative of DNA synthesis) was determined by liquid scintillation counting.\nAt timed intervals during the next 5 days, cells were pulse-labeled with [^3 H]-thymidine (0.5 μCi/ml) for 5 hours. […] The results given are the mean of three independent experiments."}}, "note": "pIC50: −log10 of the molar value."}
{"substance": "ISIS 15534: chimeric PP5 antisense oligonucleotide, P=O wings, P=S deoxy gap; GGGCCCTATTGCTTGAGTGG, SEQ ID NO: 12 (sugars by position and backbone not given here; chimeric, phosphodiester wings, phosphorothioate deoxy gap)", "values": [{"measurement": "pIC50", "setting": "PP5 mRNA", "value": "~6.87"}, {"measurement": "Decrease in [3H]-thymidine incorporation compared to control", "setting": "A549 cells; day 2", "value": "approximately 85%"}, {"measurement": "Decrease in [3H]-thymidine incorporation compared to control", "setting": "A549 cells; day 3", "value": "~88", "unit": "%"}, {"measurement": "Decrease in [3H]-thymidine incorporation compared to control", "setting": "A549 cells; day 4", "value": "~62", "unit": "%"}, {"measurement": "[3H]-thymidine incorporation relative to untreated cells", "setting": "A549 cells; day 5", "value": "approximately equivalent in treated and untreated cells"}]}
